From ChEMBL document CHEMBL4118260, “Structure-based drug design to overcome species differences in kallikrein 7 inhibition of 1,3,6-trisubstituted 1,4-diazepan-7-ones” (Bioorg Med Chem, 2018) come the findings set out here.

The target in experiment [1] is Kallikrein-7 (Homo sapiens, UniProt P49862). Description: Inhibition of recombinant human C-terminal His10-tagged KLK7 (E23 to H252 residues) using MOCAcArg-Pro-Lys-Pro-Val-Glu-Nva-Trp-Arg-Lys(Dnp)-NH2 as substrate preincubated for 10 mins followed by substrate addition measured after 30 mins by fluorescence assay.
Experiment [2] addresses Kallikrein-7 (Mus musculus, UniProt Q91VE3). The experiment is described as follows: Inhibition of mouse KLK7 using MOCAcArg-Pro-Lys-Pro-Val-Glu-Nva-Trp-Arg-Lys(Dnp)-NH2 as substrate preincubated for 10 mins followed by substrate addition measured after 30 mins by fluorescence assay.
The target of experiment [3] is Kallikrein-7 (Mus musculus) (UniProt Q91VE3). Description: Inhibition of mouse KLK7 at 30 uM using MOCAcArg-Pro-Lys-Pro-Val-Glu-Nva-Trp-Arg-Lys(Dnp)-NH2 as substrate preincubated for 10 mins followed by substrate addition measured after 30 mins by fluorescence assay relative to control.

The structures appear in SMILES notation. Some results are limits rather than exact numbers.

Chain of Kallikrein-7 (Mus musculus) (Q91VE3 whole entry): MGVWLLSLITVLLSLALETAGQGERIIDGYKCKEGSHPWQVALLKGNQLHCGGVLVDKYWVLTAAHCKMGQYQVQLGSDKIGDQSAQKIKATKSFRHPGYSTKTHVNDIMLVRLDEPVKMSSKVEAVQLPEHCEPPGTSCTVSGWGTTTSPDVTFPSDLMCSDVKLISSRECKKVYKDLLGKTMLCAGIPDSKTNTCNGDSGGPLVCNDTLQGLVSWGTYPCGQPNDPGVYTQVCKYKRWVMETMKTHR
Chain of Kallikrein-7 (Mus musculus, UniProt Q91VE3) (Q91VE3 whole entry): as above
Chain of Kallikrein-7 (Homo sapiens, UniProt P49862) (P49862 whole entry, the tested form may be a part): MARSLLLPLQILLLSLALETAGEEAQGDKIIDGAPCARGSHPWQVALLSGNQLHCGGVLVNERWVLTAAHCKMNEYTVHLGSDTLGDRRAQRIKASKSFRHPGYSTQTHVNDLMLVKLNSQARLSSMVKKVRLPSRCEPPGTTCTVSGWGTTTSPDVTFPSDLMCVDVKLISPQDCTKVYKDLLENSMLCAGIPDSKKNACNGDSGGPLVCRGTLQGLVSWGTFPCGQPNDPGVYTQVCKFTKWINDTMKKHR

The IC50 is the concentration needed to halve the response being measured. `COc1cccc(F)c1CC1CN/C(=N\N(C)C)CN(CC(=O)Nc2cccc(-c3cnn(C)c3)c2)C1=O` (racemic): the results for the IC50 at Kallikrein-7 [1] and on Kallikrein-7 [2] were 6.8 µM and over 30 µM, respectively.

As for `Cc1cccc(C)c1CC1CN/C(=N\N(C)C)CN(CC(=O)Nc2cccc(-c3cnn(C)c3)c2)C1=O` (racemic), the values for the IC50 at Kallikrein-7 [1] and against Kallikrein-7 [2] were 5.2 µM and 3.8 µM, respectively.

As for `CN(C)/N=C1/CN(CC(=O)Nc2cccc(-c3cnn(C)c3)c2)C(=O)C(Cc2c(Cl)cccc2Cl)CN1` (stereo in doubt; (+)-22g), the IC50 on Kallikrein-7 [1] is over 30 µM; on Kallikrein-7 [2], 16 µM.

In the case of `COc1cccc(C)c1CC1CN/C(=N\N(C)C)CN(CC(=O)Nc2cccc(-c3cnn(C)c3)c2)C1=O` (racemic), the IC50 on Kallikrein-7 [1] is 13 µM; against Kallikrein-7 [2], 19 µM.

Consider `Cc1cccc(Cl)c1CC1CN/C(=N\N(C)C)CN(CC(=O)Nc2cccc(-c3cnn(C)c3)c2)C1=O` (racemic), for which the IC50 on Kallikrein-7 [1] came out at 1.5 µM; against Kallikrein-7 [2], 1.6 µM.

What is called inhibition is the change of the read-out against control, counted positive when it falls. For `COc1ccccc1C[C@@H]1CN/C(=N\N(C)C)CN(CC(=O)Nc2cccc(-c3cnn(C)c3)c2)C1=O`, the IC50 was 2.4 µM on Kallikrein-7 [1] and over 30 µM against Kallikrein-7 [2]. Also, the inhibition in experiment [3] came to 41%.

Regarding `Cc1cccc(C#N)c1CC1CN/C(=N\N(C)C)CN(CC(=O)Nc2cccc(-c3cnn(C)c3)c2)C1=O` (racemic), the IC50 at Kallikrein-7 [1] came to 11 µM; against Kallikrein-7 [2], 7.1 µM.

`CN(C)/N=C1/CN(CC(=O)Nc2cccc(-c3cnn(C)c3)c2)C(=O)C(Cc2c(Cl)cccc2C#N)CN1` (racemic): the IC50 at Kallikrein-7 [1] was determined as 11 µM; at Kallikrein-7 [2], 7.8 µM.

Consider `CN(C)/N=C1/CN(CC(=O)Nc2cccc(-c3cnn(C)c3)c2)C(=O)C(Cc2c(Cl)cccc2Cl)CN1` (single isomer, unassigned; (-)), for which the IC50 on Kallikrein-7 [1] is 0.38 µM; at Kallikrein-7 [2], 0.7 µM.

As for `CN(C)/N=C1/CN(CC(=O)Nc2cccc(-c3cnn(C)c3)c2)C(=O)C(Cc2ccccc2Cl)CN1` (racemic), the IC50 on Kallikrein-7 [1] came out at 2.5 µM; against Kallikrein-7 [2], 21 µM. For the same compound, the inhibition in experiment [3] came to 59%.

Turning to `CN(C)/N=C1/CN(CC(=O)Nc2cccc(-c3cnn(C)c3)c2)C(=O)C(Cc2c(F)cccc2Cl)CN1` (racemic), the 50% inhibitory concentration (IC50) is 0.94 µM on Kallikrein-7 [1] and 6 µM against Kallikrein-7 [2].

Consider `Cc1cccc(F)c1CC1CN/C(=N\N(C)C)CN(CC(=O)Nc2cccc(-c3cnn(C)c3)c2)C1=O` (racemic), for which the IC50 on Kallikrein-7 [1] worked out at 2.3 µM; against Kallikrein-7 [2], 7.7 µM.

On Kallikrein-7 [2], `COc1ccc(Cl)cc1C[C@@H]1CN/C(=N\N(C)C)CN([C@@H](C)C(=O)Nc2cccc(-c3cnn(C)c3)c2)C1=O` returned an IC50 of over 30 µM. For the same compound, in experiment [3], the inhibition was 32%.

`COc1cc(Cl)ccc1CC1CN/C(=N\N(C)C)CN(CC(=O)Nc2cccc(-c3cnn(C)c3)c2)C1=O` (racemic): the IC50 is 7.5 µM on Kallikrein-7 [1] and over 30 µM on Kallikrein-7 [2]. Besides, the inhibition in experiment [3] was -4.1%.

Compound `COc1ccc(Cl)cc1C[C@@H]1CN/C(=N\N(C)C)CN(CC(=O)Nc2cccc(C(=O)O)c2)C1=O` had an IC50 against Kallikrein-7 [2] of over 30 µM. Also, in experiment [3], the inhibition was 11%.

`CN(C)/N=C1/CN(CC(=O)Nc2cccc(-c3cnn(C)c3)c2)C(=O)C(Cc2c(Cl)cccc2Cl)CN1` (racemic): the IC50 at Kallikrein-7 [1] worked out at 0.79 µM; on Kallikrein-7 [2], 1.2 µM.

Consider `CN(C)/N=C1/CN(CC(=O)Nc2cccc(-c3cnn(C)c3)c2)C(=O)C(Cc2c(F)cccc2C(F)(F)F)CN1` (racemic), for which the values for the IC50 at Kallikrein-7 [1] and at Kallikrein-7 [2] were 2.7 µM and over 30 µM, respectively.

For `COc1cccc(Cl)c1CC1CN/C(=N\N(C)C)CN(CC(=O)Nc2cccc(-c3cnn(C)c3)c2)C1=O` (racemic), the results for the IC50 on Kallikrein-7 [1] and at Kallikrein-7 [2] were 11 µM and 14 µM, respectively. Further, the inhibition in experiment [3] was found to be 67%.

`CN(C)/N=C1/CN(CC(=O)Nc2cccc(-c3cnn(C)c3)c2)C(=O)C(Cc2ccccc2C#N)CN1` (racemic): the IC50 on Kallikrein-7 [1] was 17 µM; on Kallikrein-7 [2] it was over 30 µM. The inhibition in experiment [3] is 22%.

At Kallikrein-7 [2], `COc1ccc(Cl)cc1C[C@@H]1CN/C(=N\N(C)C)CN(CC(=O)Nc2cccc(-c3cnn(C)c3)c2)C1=O` gave an IC50 of over 30 µM. Also, the inhibition in experiment [3] is -1.2%.

Regarding `CN(C)/N=C1/CN(CC(=O)Nc2cccc(-c3cnn(C)c3)c2)C(=O)C(Cc2c(F)cccc2F)CN1` (racemic), the IC50 was 6.9 µM at Kallikrein-7 [1] and over 30 µM against Kallikrein-7 [2].
